Assay results as given in patent US9796711B2, “Substituted pyrazolo[3,4-b]pyridin-6-carboxylic acids and method of use” (AbbVie S.àr.l., priority 2015, dated 2017).

Molecular target: T1, ΔF508-CFTR (Homo sapiens, UniProt P13569, DEL508-508)
T1 construct: host or cells: CFBE41o-, doxycycline-inducible
Experiment: CFTR cell surface levels using HRP-tagged ΔF508-CFTR expressing CFBE cells, in the presence of a co-corrector
Assay type: cell-based
Conditions: HRP-tagged ΔF508-CFTR expressing CFBE cells, in the presence of 3 μM co-corrector; for EC50: read-out: EC50
Summary of the method: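 Cells were seeded with 0.5 μg/mL doxycycline and held 68 h at 37 °C. Test compounds plus 3 μM co-corrector (final 0.1% DMSO) were then added for 20 h at 33 °C. Washed cells received HRP substrate, and luminescence was normalized between DMSO and 3 μM co-corrector controls.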

T1 sequence (P13569 with tags, fused parts or gaps DEL508-508): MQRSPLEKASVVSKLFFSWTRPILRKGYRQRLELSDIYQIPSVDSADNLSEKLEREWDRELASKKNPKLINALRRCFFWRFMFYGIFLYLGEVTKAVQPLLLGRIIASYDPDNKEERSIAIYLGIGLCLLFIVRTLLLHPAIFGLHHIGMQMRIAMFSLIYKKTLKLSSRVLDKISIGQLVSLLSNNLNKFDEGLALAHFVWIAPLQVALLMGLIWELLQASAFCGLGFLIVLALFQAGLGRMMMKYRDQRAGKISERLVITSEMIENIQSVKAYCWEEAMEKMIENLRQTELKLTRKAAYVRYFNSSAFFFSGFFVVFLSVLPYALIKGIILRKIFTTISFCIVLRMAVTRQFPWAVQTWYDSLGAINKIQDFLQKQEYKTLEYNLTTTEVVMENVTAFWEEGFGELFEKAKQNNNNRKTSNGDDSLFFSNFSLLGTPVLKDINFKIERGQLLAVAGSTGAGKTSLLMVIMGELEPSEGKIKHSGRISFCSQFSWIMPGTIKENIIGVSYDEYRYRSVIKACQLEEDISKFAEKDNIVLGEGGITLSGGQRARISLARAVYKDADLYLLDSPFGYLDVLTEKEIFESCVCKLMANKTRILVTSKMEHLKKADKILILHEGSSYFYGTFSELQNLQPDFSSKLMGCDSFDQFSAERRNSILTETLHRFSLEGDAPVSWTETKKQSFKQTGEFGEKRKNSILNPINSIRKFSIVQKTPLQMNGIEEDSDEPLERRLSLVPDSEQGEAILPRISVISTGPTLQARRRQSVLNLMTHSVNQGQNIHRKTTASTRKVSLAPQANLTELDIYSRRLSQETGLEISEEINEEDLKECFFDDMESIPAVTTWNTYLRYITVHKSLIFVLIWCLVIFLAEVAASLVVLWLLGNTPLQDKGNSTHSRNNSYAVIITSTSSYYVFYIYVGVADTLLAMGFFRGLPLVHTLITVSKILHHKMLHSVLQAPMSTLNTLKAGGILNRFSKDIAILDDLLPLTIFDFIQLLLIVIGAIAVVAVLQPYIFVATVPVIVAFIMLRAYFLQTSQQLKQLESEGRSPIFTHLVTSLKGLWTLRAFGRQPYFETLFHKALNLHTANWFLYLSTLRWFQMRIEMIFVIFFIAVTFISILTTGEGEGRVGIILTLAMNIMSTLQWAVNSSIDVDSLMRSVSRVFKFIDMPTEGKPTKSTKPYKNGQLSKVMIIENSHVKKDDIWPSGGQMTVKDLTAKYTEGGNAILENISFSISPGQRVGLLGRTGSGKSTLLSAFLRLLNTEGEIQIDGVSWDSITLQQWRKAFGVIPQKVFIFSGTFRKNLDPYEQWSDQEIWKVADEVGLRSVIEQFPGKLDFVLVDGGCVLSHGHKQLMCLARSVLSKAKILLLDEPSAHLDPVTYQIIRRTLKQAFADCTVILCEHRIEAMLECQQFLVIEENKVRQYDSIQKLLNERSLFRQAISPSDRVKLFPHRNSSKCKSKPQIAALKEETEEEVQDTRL

| Compound | % Activation | EC50 |
| --- | --- | --- |
| O=C(O)c1cc(N2CC3(CCCOC3)C2)c2c(C3CCC3)nn(-c3ccccc3)c2n1 [compound 720, 3-cyclobutyl-4-(6-oxa-2-azaspiro[3.5]nonan-2-yl)-1-phenyl-1H-pyrazolo[3,4-b]pyridine-6-carboxylic acid] | 263.1% | 356 nM |
| O=C(O)c1cc(N2CCN3CCC[C@@H]3C2)c2c(C3CCC3)nn(-c3ccccc3)c2n1 [compound 721, 3-cyclobutyl-4-[(8aR)-hexahydropyrrolo[1,2-a]pyrazin-2(1H)-yl]-1-phenyl-1H-pyrazolo[3,4-b]pyridine-6-carboxylic acid] | 302.1% | 510 nM |
| O=C(O)c1cc(N2CCN(CCO)CC2)c2c(C3CCC3)nn(-c3ccccc3)c2n1 [compound 722, 3-cyclobutyl-4-[4-(2-hydroxyethyl)piperazin-1-yl]-1-phenyl-1H-pyrazolo[3,4-b]pyridine-6-carboxylic acid] | 247% | 1670 nM |
| CN1CCOC(C2CN(c3cc(C(=O)O)nc4c3c(C3CCC3)nn4-c3ccccc3)C2)C1 (centres unmarked) [compound 723, 3-cyclobutyl-4-[3-(4-methylmorpholin-2-yl)azetidin-1-yl]-1-phenyl-1H-pyrazolo[3,4-b]pyridine-6-carboxylic acid] | 344.8% | 1050 nM |
| CN(C1CCN(C2CN(c3cc(C(=O)O)nc4c3c(C3CCC3)nn4-c3ccccc3)C2)CC1)C1COC1 [compound 724, 3-cyclobutyl-4-(3-{4-[methyl(oxetan-3-yl)amino]piperidin-1-yl}azetidin-1-yl)-1-phenyl-1H-pyrazolo[3,4-b]pyridine-6-carboxylic acid] | 208.5% | 1670 nM |
| O=C(O)c1cc(N2CC(N3CCC(N4CCOCC4)CC3)C2)c2c(C3CCC3)nn(-c3ccccc3)c2n1 [compound 725, 3-cyclobutyl-4-{3-[4-(morpholin-4-yl)piperidin-1-yl]azetidin-1-yl}-1-phenyl-1H-pyrazolo[3,4-b]pyridine-6-carboxylic acid] | 173.2% | 869 nM |
| CCOCCN1CCC(N2CCN(c3cc(C(=O)O)nc4c3c(C3CCC3)nn4-c3ccccc3)CC2)CC1 [compound 726, 3-cyclobutyl-4-{4-[1-(2-ethoxyethyl)piperidin-4-yl]piperazin-1-yl}-1-phenyl-1H-pyrazolo[3,4-b]pyridine-6-carboxylic acid] | 409.6% | 311 nM |
| CC(O)CN1CCC(N2CCN(c3cc(C(=O)O)nc4c3c(C3CCC3)nn4-c3ccccc3)CC2)CC1 (centres unmarked) [compound 727, 3-cyclobutyl-4-{4-[1-(2-hydroxypropyl)piperidin-4-yl]piperazin-1-yl}-1-phenyl-1H-pyrazolo[3,4-b]pyridine-6-carboxylic acid] | 348% | 1670 nM |
| CN(C)CCCN1CCN(c2cc(C(=O)O)nc3c2c(C2CCC2)nn3-c2ccccc2)CC1 [compound 728, 3-cyclobutyl-4-{4-[3-(dimethylamino)propyl]piperazin-1-yl}-1-phenyl-1H-pyrazolo[3,4-b]pyridine-6-carboxylic acid] | 221.6% | 1670 nM |
| CCOCCN1CCN(C2CCN(c3cc(C(=O)O)nc4c3c(C3CCC3)nn4-c3ccccc3)CC2)CC1 [compound 729, 3-cyclobutyl-4-{4-[4-(2-ethoxyethyl)piperazin-1-yl]piperidin-1-yl}-1-phenyl-1H-pyrazolo[3,4-b]pyridine-6-carboxylic acid] | 530.4% | 1670 nM |
| O=C(O)c1cc(N2CCC(OCCN3CCCCC3)CC2)c2c(C3CCC3)nn(-c3ccccc3)c2n1 [compound 730, 3-cyclobutyl-1-phenyl-4-{4-[2-(piperidin-1-yl)ethoxy]piperidin-1-yl}-1H-pyrazolo[3,4-b]pyridine-6-carboxylic acid] | 418.7% | 71.5 nM |
| CCN(CC)CCCC1CCN(c2cc(C(=O)O)nc3c2c(C2CCC2)nn3-c2ccccc2)CC1 [compound 731, 3-cyclobutyl-4-{4-[3-(diethylamino)propyl]piperidin-1-yl}-1-phenyl-1H-pyrazolo[3,4-b]pyridine-6-carboxylic acid] | 399.5% | 94.5 nM |
| O=C(O)c1cc(N2CCC(CCCN3CCCCC3)CC2)c2c(C3CCC3)nn(-c3ccccc3)c2n1 [compound 732, 3-cyclobutyl-1-phenyl-4-{4-[3-(piperidin-1-yl)propyl]piperidin-1-yl}-1H-pyrazolo[3,4-b]pyridine-6-carboxylic acid] | 409.6% | 119 nM |
| O=C(O)c1cc(N2CCC(CCCN3CCCC3)CC2)c2c(C3CCC3)nn(-c3ccccc3)c2n1 [compound 733, 3-cyclobutyl-1-phenyl-4-{4-[3-(pyrrolidin-1-yl)propyl]piperidin-1-yl}-1H-pyrazolo[3,4-b]pyridine-6-carboxylic acid] | 396.9% | 85.1 nM |
| CCN(C1CCN(c2cc(C(=O)O)nc3c2c(C2CCC2)nn3-c2ccccc2)CC1)C1COC1 [compound 734, 3-cyclobutyl-4-{4-[ethyl(oxetan-3-yl)amino]piperidin-1-yl}-1-phenyl-1H-pyrazolo[3,4-b]pyridine-6-carboxylic acid] | 415% | 244 nM |
| CN(C1CCN(c2cc(C(=O)O)nc3c2c(C2CCC2)nn3-c2ccccc2)CC1)C1COC1 [compound 735, 3-cyclobutyl-4-{4-[methyl(oxetan-3-yl)amino]piperidin-1-yl}-1-phenyl-1H-pyrazolo[3,4-b]pyridine-6-carboxylic acid] | 437.7% | 224 nM |
| O=C(O)c1cc(N2CCC(C3CCN(C4COC4)CC3)CC2)c2c(C3CCC3)nn(-c3ccccc3)c2n1 [compound 736, 3-cyclobutyl-4-[1′-(oxetan-3-yl)[4,4′-bipiperidin]-1-yl]-1-phenyl-1H-pyrazolo[3,4-b]pyridine-6-carboxylic acid] | 511.6% | 42.2 nM |
| CN(C)C1CCN(c2cc(C(=O)O)nc3c2c(C2CCC2)nn3-c2ccccc2)CC1 [compound 737, 3-cyclobutyl-4-[4-(dimethylamino)piperidin-1-yl]-1-phenyl-1H-pyrazolo[3,4-b]pyridine-6-carboxylic acid] | 343.3% | 1670 nM |
| CN1CCN(C(=O)C2CCN(c3cc(C(=O)O)nc4c3c(C3CCC3)nn4-c3ccccc3)CC2)CC1 [compound 739, 3-cyclobutyl-4-[4-(4-methylpiperazine-1-carbonyl)piperidin-1-yl]-1-phenyl-1H-pyrazolo[3,4-b]pyridine-6-carboxylic acid] | 327.2% | 1670 nM |
| CC(C)c1nn(-c2ccc(F)cc2)c2nc(C(=O)O)cc(N3CC(C4CN(C)CCO4)C3)c12 (centres unmarked) [compound 740, 1-(4-fluorophenyl)-4-[3-(4-methylmorpholin-2-yl)azetidin-1-yl]-3-(propan-2-yl)-1H-pyrazolo[3,4-b]pyridine-6-carboxylic acid] | 194.7% | 424 nM |
| CCOCCN1CCC(N2CCN(c3cc(C(=O)O)nc4c3c(C(C)C)nn4-c3ccc(F)cc3)CC2)CC1 [compound 741, 4-{4-[1-(2-ethoxyethyl)piperidin-4-yl]piperazin-1-yl}-1-(4-fluorophenyl)-3-(propan-2-yl)-1H-pyrazolo[3,4-b]pyridine-6-carboxylic acid] | 303% | 669 nM |
| CC(O)CN1CCC(N2CCN(c3cc(C(=O)O)nc4c3c(C(C)C)nn4-c3ccc(F)cc3)CC2)CC1 (centres unmarked) [compound 742, 1-(4-fluorophenyl)-4-{4-[1-(2-hydroxypropyl)piperidin-4-yl]piperazin-1-yl}-3-(propan-2-yl)-1H-pyrazolo[3,4-b]pyridine-6-carboxylic acid] | 126.1% | 5000 nM |
| CC(C)c1nn(-c2ccc(F)cc2)c2nc(C(=O)O)cc(N3CCN(C4CCN(C5CC5)CC4)CC3)c12 [compound 743, 4-[4-(1-cyclopropylpiperidin-4-yl)piperazin-1-yl]-1-(4-fluorophenyl)-3-(propan-2-yl)-1H-pyrazolo[3,4-b]pyridine-6-carboxylic acid] | 330.5% | 1240 nM |
| CC(C)c1nn(-c2ccc(F)cc2)c2nc(C(=O)O)cc(N3CCC(N4CCN(C5COC5)CC4)CC3)c12 [compound 744, 1-(4-fluorophenyl)-4-{4-[4-(oxetan-3-yl)piperazin-1-yl]piperidin-1-yl}-3-(propan-2-yl)-1H-pyrazolo[3,4-b]pyridine-6-carboxylic acid] | 337.3% | 735 nM |
| COCCN1CCN(C2CCN(c3cc(C(=O)O)nc4c3c(C(C)C)nn4-c3ccc(F)cc3)CC2)CC1 [compound 746, 1-(4-fluorophenyl)-4-{4-[4-(2-methoxyethyl)piperazin-1-yl]piperidin-1-yl}-3-(propan-2-yl)-1H-pyrazolo[3,4-b]pyridine-6-carboxylic acid] | 418.4% | 549 nM |
| CCN(CC)CCCC1CCN(c2cc(C(=O)O)nc3c2c(C(C)C)nn3-c2ccc(F)cc2)CC1 [compound 747, 4-{4-[3-(diethylamino)propyl]piperidin-1-yl}-1-(4-fluorophenyl)-3-(propan-2-yl)-1H-pyrazolo[3,4-b]pyridine-6-carboxylic acid] | 475.3% | 1670 nM |
| CC(C)c1nn(-c2ccc(F)cc2)c2nc(C(=O)O)cc(N3CCC(CCCN4CCCC4)CC3)c12 [compound 749, 1-(4-fluorophenyl)-3-(propan-2-yl)-4-{4-[3-(pyrrolidin-1-yl)propyl]piperidin-1-yl}-1H-pyrazolo[3,4-b]pyridine-6-carboxylic acid] | 387% | 277 nM |
| CCN(C1CCN(c2cc(C(=O)O)nc3c2c(C(C)C)nn3-c2ccc(F)cc2)CC1)C1COC1 [compound 750, 4-{4-[ethyl(oxetan-3-yl)amino]piperidin-1-yl}-1-(4-fluorophenyl)-3-(propan-2-yl)-1H-pyrazolo[3,4-b]pyridine-6-carboxylic acid] | 394.1% | 503 nM |
